According to US6936608B2, “Imidazo-triazine derivatives as ligands for GABA receptors” (Merck Sharp & Dohme Ltd., priority 2000, dated 2005):
Where a name gives a salt, the structure may show the parent alone.

Q: For `CC(C)(F)c1cnn2c(-c3ccc(F)c(-c4cccnc4)c3)cnc2n1` (as salt: hydrochloride) [Example 3, 3-(1-Fluoro-1-methylethyl)-7-[4-fluoro-3-(pyridin-3-yl)phenyl]imidazo[1,2-b][1,2,4]triazine], which melting point is on record?
A: The melting point was 113 to 126 °C.

Q: With `Cc1cnn2c(-c3cccc(-c4ccccc4C#N)c3)cnc2n1` [Example 1, 3′-(3-methylimidazo[1,2-b][1,2,4]triazin-7-yl)biphenyl-2-carbonitrile] as the compound, how does the melting point read?
A: The melting point was 211 to 216 °C.

Q: With `N#Cc1ccccc1-c1cc(-c2cnc3nc(C(F)(F)F)cnn23)ccc1F` [Example 2, 2′-Fluoro-5′-(3-trifluoromethylimidazo[1,2-b][1,2,4]triazin-7-yl)biphenyl-2-carbonitrile] as the compound, how does the melting point read?
A: Its melting point is 168 to 174 °C.

Q: With `N#Cc1ccccc1-c1cc(-c2cnc3nccnn23)ccc1F` [Example 5, 2′-Fluoro-5′-(imidazo[1,2-b][1,2,4]triazin-7-yl)biphenyl-2-carbonitrile] as the compound, how does the melting point read?
A: Its melting point is 211 to 215 °C.

Q: For `Fc1ccc(-c2cnc3nc(C(F)(F)F)cnn23)cc1-c1ccccn1` [Example 6, 7-[4-Fluoro-3-(pyridin-2-yl)phenyl]-3-trifluoromethylimidazo[1,2-b][1,2,4]triazine], which melting point is on record?
A: The melting point was 128 to 131 °C.

Q: With `N#Cc1ccccc1-c1cccc(-c2cnc3nc(C(F)(F)F)cnn23)c1F` [Example 7, 2′-Fluoro-3′-(3-trifluoromethylimidazo[1,2-b][1,2,4]triazin-7-yl)biphenyl-2-carbonitrile] as the compound, how does the melting point read?
A: The melting point was 167 to 168 °C.

Q: For `CC(C)(O)c1cnn2c(-c3ccc(F)c(-c4cccnc4)c3)cnc2n1` [Example 14, 2-{7-[4-Fluoro-3-(pyridin-3-yl)phenyl]imidazo[1,2-b][1,2,4]triazin-3-yl}propan-2-ol], which melting point is on record?
A: Its melting point is 199 to 200 °C.

Q: Which melting point does the source give for `CC(C)(O)c1cnn2c(-c3ccc(F)c(-c4ccncc4)c3)cnc2n1` [Example 15, 2-{7-[4-Fluoro-3-(pyridin-4-yl)phenyl]imidazo[1,2-b][1,2,4]triazin-3-yl}propan-2-ol] here?
A: The melting point was 233 to 237 °C.

Q: For `CC(C)(O)c1cnn2c(-c3ccc(F)c(-c4ccccc4C#N)c3)cnc2n1` [Example 16, 2′-Fluoro-5′-[3-(1-hydroxy-1-methylethyl)imidazo[1,2-b][1,2,4]triazin-7-yl]biphenyl-2-carbonitrile], which melting point is on record?
A: The melting point was 187 °C.

Q: With `CC(C)(O)c1cnn2c(-c3cccc(-c4ccncc4)c3F)cnc2n1` [Example 19, 2-{7-[2-Fluoro-3-(pyridin-4-yl)phenyl]imidazo[1,2-b][1,2,4]triazin-3-yl}propan-2-ol] as the compound, how does the melting point read?
A: The melting point was 221 to 223 °C.

Q: With `CC(C)(O)c1cnn2c(-c3cccc(-c4ccccc4C#N)c3)cnc2n1` [Example 22, 3′-[3-(1-Hydroxy-1-methylethyl)imidazo[1,2-b][1,2,4]triazin-7-yl]biphenyl-2-carbonitrile] as the compound, how does the melting point read?
A: The melting point was 166 °C.

Q: With `CC(C)(F)c1cnn2c(-c3ccc(F)c(-c4c(F)cccc4C#N)c3)cnc2n1` [Example 25, 6,2′-Difluoro-5′-[3-(1-fluoro-1-methylethyl)imidazo[1,2-b][1,2,4]triazin-7-yl]biphenyl-2-carbonitrile] as the compound, how does the melting point read?
A: The melting point was 187 to 188 °C.

Q: Which melting point does the source give for `CC(C)(O)c1cnn2c(-c3ccc(F)c(-c4ccc(F)cn4)c3)cnc2n1` [Example 29, 2-{7-[4-Fluoro-3-(5-fluoropyridin-2-yl)phenyl]imidazo[1,2-b][1,2,4]triazin-3-yl}propan-2-ol] here?
A: Its melting point is 222 °C.
